The molecules below were run against T1, human H1 receptor (Homo sapiens, UniProt P35367) (assay: Histamine H1 receptor binding, competition displacement of [3H]-pyrilamine). Conditions: displacement of 1 nM [3H]-pyrilamine; membranes from recombinant CHO-K1 cells expressing the human H1 receptor; 1 hour at room temperature; read-out: H1 pKi (converted).
T1 construct: purchased Euroscreen SA, Brussels, Belgium ES-390-M; host or cells: CHO-K1
Protocol: Histamine H1 receptor binding activity of compounds of the invention was assessed by competition displacement of 1 nM [3H]-pyrilamine (Amersham, Bucks, Product code TRK 608, specific activity 30 Ci/mmol) to 2 μg membranes prepared from recombinant CHO-K1 cells expressing the human H1 receptor (Euroscreen SA, Brussels, Belgium, product code ES-390-M) in assay buffer (50 mM Tris pH 7.4 containing 2 mM MgCl2, 250 mM sucrose and 100 mM NaCl) for 1 hour at room temperature.
The following compounds of the invention gave inhibition of [3H] pyrilimine binding: […]

T1 sequence (P35367 whole entry): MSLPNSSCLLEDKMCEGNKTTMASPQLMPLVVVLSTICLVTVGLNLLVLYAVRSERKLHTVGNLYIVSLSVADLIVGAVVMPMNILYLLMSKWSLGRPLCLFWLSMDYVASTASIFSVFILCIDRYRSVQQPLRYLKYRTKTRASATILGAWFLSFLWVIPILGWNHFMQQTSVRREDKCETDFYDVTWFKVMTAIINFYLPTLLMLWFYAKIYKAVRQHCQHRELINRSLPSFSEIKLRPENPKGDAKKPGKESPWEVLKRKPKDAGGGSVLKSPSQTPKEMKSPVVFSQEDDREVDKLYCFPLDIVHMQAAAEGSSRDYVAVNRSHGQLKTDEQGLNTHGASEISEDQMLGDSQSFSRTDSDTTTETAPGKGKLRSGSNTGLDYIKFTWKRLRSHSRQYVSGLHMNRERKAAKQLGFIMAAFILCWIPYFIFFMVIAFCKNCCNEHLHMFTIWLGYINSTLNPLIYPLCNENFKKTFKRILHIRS

| Ki [µM] | Structure (SMILES) |
| --- | --- |
| 0.126 | O=C(O)[C@H]1C2CCC(C2)[C@H]1N1CCC(CN2CCC(Oc3ccc(Cl)c(Cl)c3)CC2)CC1 (mixture of isomers) [Example 3A, (2S,3R) and (2R,3S)-3-(4-{[4-(3,4-dichlorophenoxy)piperidin-1-yl]methyl}piperidin-1-yl)bicyclo[2.2.1]heptane-2-carboxylic acid] |
| 0.2 | O=C(O)[C@@H]1CCCC[C@H]1N1CCC(CN2CCC(Oc3ccc(Cl)c(Cl)c3)CC2)CC1 (racemic) [Example 1A, (1R,2R) and (1S,2S)-2-(4-{[4-(3,4-dichlorophenoxy)piperidin-1-yl]methyl}piperidin-1-yl)cyclohexanecarboxylic acid] |
| 0.316 | O=C(O)C1CCCC1N1CCC(CN2CCC(Oc3ccc(Cl)c(Cl)c3)CC2)CC1 [Example 4A, (1S,2R) and (1R,2S)-2-(4-{[4-(3,4-dichlorophenoxy)piperidin-1-yl]methyl}piperidin-1-yl)cyclopentanecarboxylate] |

Source: patent US20080200505A1, “Piperidines for the Treatment of Chemokine Mediated Diseases” (ASTRAZENECA AB, priority 2005, published 2008)
